Results: patent publication US4335250A, “Compound with immunopotentiating activity and production and uses thereof” (Banyu Pharmaceutical Co., Ltd., priority 1978, dated 1982)

Key:
Gardner Lymphoma = test: Inhibitory effect on growth of transplanted Gardner Lymphoma; type: in vivo, C3H/He mouse (female, 10 weeks); details: for Average weight of tumors / Inhibition: 5 days, 30 days after transplantation; for Average weight of tumors: untreated 1310 mg; for Inhibition: tumor growth
Description: 10^5 Gardner Lymphoma cells were transplanted subcutaneously to the inguinal of each C3H/He mouse under test (female, 10 weeks old, 5 mice per group).

[1] = test system: cellular immunity (cell-mediated immunity), DTH response to sheep red blood cells; test: Delayed-type hypersensitivity (footpad swelling), CDF1 mice; type: in vivo, CDF1 mouse (male, 9 weeks); details: other strains of mice of different ages
[2] = test system: cellular immunity (cell-mediated immunity), DTH response to sheep red blood cells; test: Delayed-Type Hypersensitivity (D.T.H.) technique, ICR mice immunized with sheep red blood cells (footpad swelling); type: in vivo, ICR mouse (female, 6 weeks); details: for Increase in thickness of footpad: 24 h after eliciting injection, control 8.3 ± 1.0; for Swelling degree: ICR mice, vs control
Procedure: In this Example, the effect of BF-127 substance on cellular immunity (cell-mediated immunity) was tested according to a known Delayed-Type Hypersensitivity (D.T.H.) technique (see P. H. Lagrange, G. B. Mackaness and T. E. Mille, "J. Exp. Med", 139, 1529-1539 (1974) using mice immunized with sheep red blood cells as antigen.
(§1) Thus, 10^8 sheep red blood cells (SRBC) suspended in 0.05 ml of physiological saline were subcutaneously injected at the time of immunization to the right hind footpad of each ICR mouse under test (female, 6 weeks aged) to establish delayed-type hypersensitivity. Simultaneously with the immunization, a varying dose of BF-127 substance was intraperitoneally injected into each test mouse. Four days later, 10^8 sheep red blood cells were subcutantaneously injected into the left hind footpad of each test mouse for elicitation of the D.T.H. response. 24 hours after eliciting injection, the thickness of the left hind footpad was measured with a vernier caliper to evaluate the degree of the resulting edema in the footpad. The degree of the swelling serves to estimate the cellular immunity involved. In the Table, the swelling degree is expressed in terms of the values calculated by the equation: [formula]
By way of reference, the test results conducted by the same procedure as above except that BF-127 substance was orally administered are indicated in Table 2 below.

IMC Carcinoma [3] = test: Inhibitory effect on IMC Carcinoma, 1×10^6 cells inoculated; type: in vivo, CDF1 mouse (female, 14 weeks); details: for Average weight of tumors: untreated 5635 mg; for Inhibition: tumor growth
Description: This Example illustrates the inhibitory effect of BF-127 substance on IMC Carcinoma. […] Pathological studies have shown that the above tumor is a sort of epithelial undifferentiated tumors.
5×10^6 IMC tumor cells were transplanted hypodermically to the inguinal section of each CDF1 mouse under test (female, 14 weeks old, 5 mice per group). 8 days after transplantation, a varying dose of BF-127 substance was intraperitoneally injected into each test mouse once a day for five successive days. 30 days after transplantation, the tumor formed were removed and weighed to evaluate the inhibitory effect of BF-127 substance on tumor growth in terms of average weight of the tumors formed in 5 mice.
Further tests were conducted following the procedure as above wherein 1×10^6 IMC tumor cells were inoculated and BF-127 substance was intraperitoneally injected (I.P.) or orally administered (P.O.).

[4] = test system: cellular immunity (cell-mediated immunity), DTH response to sheep red blood cells; test: Delayed-type hypersensitivity (footpad swelling), CDF1 mice; type: in vivo, CDF1 mouse (male, 9 weeks)
Procedure: as §1
The same test procedure as described in Example 7 was repeated but using CDF1 (DBA/2xBALB/CF1) male mice (9 weeks old), in which varying doses of BF-127 substance were intraperitoneally injected or orally administered into each test mouse. The tests results are shown in Table 3 below where the swelling degree has the same significance as in Example 7.

IMC Carcinoma [5] = test: Inhibitory effect on IMC Carcinoma, 5×10^6 cells transplanted; type: in vivo, CDF1 mouse (female, 14 weeks); details: 5 days, 30 days; for Average weight of tumors: untreated 12380 mg; for Inhibition: tumor growth
Description: 5×10^6 IMC tumor cells were transplanted hypodermically to the inguinal section of each CDF1 mouse under test (female, 14 weeks old, 5 mice per group).

[6] = test system: delayed-type hypersensitivity; details: cited from earlier work
alkaline phosphatase = details: cited from earlier work
antibody-forming cells = details: cited from earlier work
immune response = details: Japanese Patent Pre-publication No. 44632/79; U.S. Pat. No. 4,238,507; cited from earlier work
[7] = 20 μg/mouse (Control) i.p. once a day
[8] = 100 μg/mouse (Control) i.p. once a day

## O=C(O)c1ccc(CO)c(O)c1 [BF-127, 3-hydroxy-4-(hydroxymethyl) benzoic acid]
Gardner Lymphoma; 0.1 μg/mouse i.p. once a day
  Average weight of tumors: 950 mg
  Inhibition: 27.5%
Gardner Lymphoma; 1 μg/mouse i.p. once a day
  Average weight of tumors: 930 mg
  Inhibition: 29.0%
Gardner Lymphoma; 10 μg/mouse i.p. once a day
  Average weight of tumors: 570 mg
  Inhibition: 56.5%
Gardner Lymphoma; BF-127 at 10 μg/mouse
  inhibition of tumor growth compared to Bleomycin: superior or comparable to Bleomycin
[1]
  immunopotentiating effect: also observed
[2]; 0.1 μg/mouse i.p.
  Increase in thickness of footpad: 14.3 ± 1.1 × 0.1 mm
  Swelling degree: 172%
[2]; 1 μg/mouse i.p.
  Increase in thickness of footpad: 19.4 ± 1.8 × 0.1 mm
  Swelling degree: 234%
[2]; 10 μg/mouse i.p.
  Increase in thickness of footpad: 15.5 ± 1.3 × 0.1 mm
  Swelling degree: 187%
[2]; 10 μg/mouse oral
  Swelling degree: 146%
[2]; 100 μg/mouse i.p.
  Increase in thickness of footpad: 15.7 ± 0.3 × 0.1 mm
  Swelling degree: 189%
[2]; 100 μg/mouse oral
  Swelling degree: 148%
[2]; 1 mg/mouse i.p.
  Increase in thickness of footpad: 13.1 ± 0.4 × 0.1 mm
  Swelling degree: 158%
[2]; 1 mg/mouse oral
  Swelling degree: 133%
[2]; i.p., 1 mg to 0.1 μg/mouse
  potentiating effect on establishment of cellular immunity: intensive potentiating effect
[2]; intravenous injection
  potentiating effect on DTH response: potentiating effect has also been observed
[2]; oral administration
  potentiating effect on DTH response: potentiating effect has also been observed
[2]; oral, doses of 1 mg to 10 μg/mouse
  potentiation of the DTH response: 30-50%
[2]; subcutaneous injection
  potentiating effect on DTH response: potentiating effect has also been observed
IMC Carcinoma [3]; 1 μg/mouse (I.P.)
  Average weight of tumors: 2206 mg
  Inhibition: 60.8%
IMC Carcinoma [3]; 1 μg/mouse (P.O.)
  Average weight of tumors: 2538 mg
  Inhibition: 55.0%
IMC Carcinoma [3]; 10 μg/mouse (I.P.)
  Average weight of tumors: 1312 mg
  Inhibition: 76.8%
IMC Carcinoma [3]; 10 μg/mouse (P.O.)
  Average weight of tumors: 2638 mg
  Inhibition: 53.0%
[4]; 0.1 μg/mouse, I.P. injection
  Swelling degree: 119%
[4]; 0.1 μg/mouse, oral administration
  Swelling degree: 103%
[4]; 1 μg/mouse, I.P. injection
  Swelling degree: 129%
[4]; 1 μg/mouse, oral administration
  Swelling degree: 115%
[4]; 10 μg/mouse, I.P. injection
  Swelling degree: 131%
[4]; 10 μg/mouse, oral administration
  Swelling degree: 122%
[4]; 100 μg/mouse, I.P. injection
  Swelling degree: 133%
[4]; 100 μg/mouse, oral administration
  Swelling degree: 142%
[4]; 1 mg/mouse, I.P. injection
  Swelling degree: 125%
[4]; 1 mg/mouse, oral administration
  Swelling degree: 138%
IMC Carcinoma [5]; 1 μg/mouse i.p. once a day
  Average weight of tumors: 5740 mg
  Inhibition: 53.6%
IMC Carcinoma [5]; 10 μg/mouse i.p. once a day
  Average weight of tumors: 6190 mg
  Inhibition: 50.0%
IMC Carcinoma [5]; 100 μg/mouse i.p. once a day
  Average weight of tumors: 7970 mg
  Inhibition: 35.6%

## NC(C(=O)O)c1ccc(C=O)c(O)c1 (stereo not drawn) [Forphenicine]
[6]
  delayed-type hypersensitivity: enhances delayed-type hypersensitivity
Alkaline phosphatase
  inhibition of alkaline phosphatase: strong inhibitor
antibody-forming cells
  number of antibody-forming cells: increases the number of antibody-forming

## CO[C@@]12[C@H](COC(N)=O)C3=C(C(=O)C(C)=C(N)C3=O)N1C[C@@H]1N[C@@H]12 [MMC, Mytomycin, reference compound]
IMC Carcinoma [5]; [7]
  Average weight of tumors: 5510 mg
  Inhibition: 55.5%

## NC(C(=O)O)c1ccc(CO)c(O)c1 (stereo not drawn) [forphenicinol]
Immune response
  immunopotentiating activity: found to have an immunopotentiating activity

## Bleomycin [reference compound]
Gardner Lymphoma; [8]
  Average weight of tumors: 760 mg
  Inhibition: 42.0%
IMC Carcinoma [5]; 100 μg/mouse i.p. once a day
  Average weight of tumors: 5770 mg
  Inhibition: 53.4%
